Experimental data: patent EP2563337B1, “CARRIER AND TARGETING SYSTEM COMPRISING A SIOSOMAL COMPOSITION FOR INTRACELLULAR DELIVERY AND TARGETING OF ACTIVE SUBSTANCE” (Salama, Zoser B., priority 2010, dated 2011)
“And” between values parts separate entries of the source, which are not always exact repeats. Equal entries are not always repeated. Values belong to the molecule of their own block, whether it stands above or below them.

Assays:
[1] = Encapsulation efficiency of doxorubicin hydrochloride in siosomes (absorbance at 480 nm after gel filtration); type: physicochemical
Protocol: A doxorubicin hydrochloride solution at 10 mg/ml was prepared using physiological saline. The predetermined amount of the doxorubicin hydrochloride solution was added to the sugar siosome dispersion using the cationic organosilicon compounds such as 1.2-(Dimethyldecylsilyl)ethyl-beta-D-glucosamin, 2.2-(Dimethyloctylsilylcholin)ethyl-beta-D-glucopyranosid and/or 1.2-(DiN,N,N,trimethylammoniadecylsilyl)ethyl-beta-D-glucopyranosid and the mixture was adjusted to pH 7.4, using 1 N NaOH or saturated sodium hydrogencarbonate and the mixture was stirred at 65°C for 30 minutes the thereby introduce the doxorubicin hydrochloride in the siosomes.
After doxorubicin hydrochloride introduction, the sample was cooled in an ice bath. Gel filtration was conducted using a column (Sepharose 4, fast flow, having a diameter of 2.8 cm and a length of 20 cm, fully substituted with 10% sucrose (pH 6.5)) to remove the doxorubicin hydrochloride that had not been introduced in the siosomes.
The amount of the sugar silanes in the siosomes, the amounts of the doxorubicin hydrochloride encapsulated in the siosomes and the siosomes themselves were measured by the same methods as in the above examples.
Concentration of the doxorubicin hydrochloride encapsulated in the siosomes was determined by measuring absorbance at 480 nm, using a spectrophotometer for the solution prepared by adding 2 ml of methanol to 40 µl of the doxorubicin siosomes. An alternative HPLC-based assay has also been used for the quantification of the doxorubicin in the formulations.
The above procedures described in example 16 were employed to prepare the carrier siosomes systems in this example. According to these methods of preparation, a dispersion of each of the following organo-silicon compounds were prepared, using doxorubicin hydrochloride solutions at […]. • Sil 8.1: Decyldimethylsilyl-α-D-galactopyranosid • Sil 9.1: Dodecyldimethylsilyl-α-D-glucopyranosid • SIL 15: 1-O-Dioctadecylsilyl-di(2,3,4,6-O-tetracetyl-β-D-galactopyranosid) • SIL 14: 1-o-Dioctadecylsilyl-di(2,3,4,6-O-tetracetyl-β-D-glucopyranosid)1-o- • SIL17: Didodecylsilyl-di(2,3,4,6-O-tetracetyl-β-D-glucopyranosid) • SIL18: Tridodecylsilyl-(2,3,4,6-O-tetracetyl-β-D-glucopyranosid) • Sil22.1 Di(octadecanoyloxy)dimethylsilan
The following parameters have been determined: 1 Physico chemical properties 2 Encapsulated efficiency of doxorubicin 3 Stability 4 Particle size distribution prior to lyophilisation and after dehydration using sterile water for injection 5 Release profile

[2] = for Particle size range of the Doxorubicin-siosomes (nm): Example 18: doxorubicin-siosomes prepared from the single organosilicon compound; for Particle size (nm): Example 19: doxorubicin-siosomes from organosilicon compounds and combinations
Protocol: The siosome size was measured using Zetasizer (Malvern Instruments).
The obtained test samples were analyzed using a Zetasizer from Malvern to measure the particle size of the Siosomes® and its concentration (via determination of the count rate which related to the sample quality and concentration).
The Zetasizer from Malvern performs particle size measurements using a process called Dynamic Light Scattering (DLS). Dynamic Light Scattering (also known as PCS - Photon Correlation Spectroscopy) measures Brownian motion and relates this to the size of the particles. It does this by illuminating the particles with a laser and analyzing the intensity fluctuations in the scattered light. If the particles or molecules are illuminated with a laser, the intensity of the scattered light fluctuates at a rate that is dependent upon the size of the particles as smaller particles are "kicked" further by the solvent molecules and move more rapidly.

[3] = Intracellular distribution of Cis-Oxoplatin within the rat liver, total platinum in liver homogenate and fractions; type: in vivo; details: rats, 1.5 mg Cis-Oxoplatin encapsulated in Siosomes of the compound, intravenous, 3 hours after administration
Text: • 1. The objective of the study to assess the intracellular distribution of Cis-Oxoplatin (as model drug molecule) in rat liver using Cis-Oxoplatin encapsulated in Siosomes®, using the following organosilicon compounds: • a. Sugar Organosilicon Compound: Didodecylsilyi-di(2,3,4,6-O-tetraacetyl-β-D-glucopyranosid (SIL 17) • b. Cationic Sugar Organosilicon Compound: 2.2-(Dimethyloctylsilylcholin)ethyl- β-D-glucopyranosid (SIL62) • c. Anionic Sugar Organosilicon Compound: 2-(Dimethyidecylsilyl)ethyl-β-D-glucopyranosidsulfate (SIL56) • d. Zwitterionic Sugar Organosilicon Compound: 2-(N,N,N, trimethylammonianonaylsilyl)ethyl- P-D-glucopyranosidsulfate (SIL66) • e. PEGylated Organosilicon Compound: 2-(Dimethyloctylsilylcholin)ethyl-β-D-PEG-acetylglucosaminether (SIL54) • 2. The different Siosomes® using each of the above mentioned organosilicon compounds have been prepared according to the procedures of this invention. The particle size range of the Siosomes® was 120-300 nm.
The Platinum-Siosomes®-Complex formulations were supplied in vials containing 10 mg each. Before administration, the contents of each vial was dissolved using 2 ml of sterile distilled water.
Each rat was administered with 1.5 mg investigative formulation, therefore each rat was administered 300 µl.
At the start of the study, all animals in all treatment groups received 1.5 mg of investigative drug. All drugs given via intravenous route were treated in an ultrasonic bath for five minutes at room temperature.
Tissue fractionation was performed by differential centrifugation yielding 5 fractions: • a. Mitochondrial fraction • b. Cytosol • c. Lysosomes • d. Microsomal fraction • e. Membrane fraction
Animals have been sacrificed 3 hours after the administration of the Siosomes® formulations. The livers have been removed from all animals. The liver homogenate has been prepared from the liver of each treatment group and used for the fractionation of the liver cells.
Each of the animals in the treatment control group for the determination of total platinum in the liver homogenate have been administered the Drug-Siosomes® formulations in the same way/procedures as the treatment groups.
Total platinum concentrations have been determined in each fraction for the treated and untreated animal groups. • Average animal weight = 211.64 ± 21.23 g • Average liver weight = 10.40 ± 1.27 g • Average concentration of total platinum in the liver homogenate of the treatment groups (control) • Group 1: Sugar Organosilicon Compound = 2.34 ± 0.82 µg/g • Group 2: Cationic Sugar Organosilicon Compound = 4.40 ± 1.30 µg/g • Group 3: Anionic Sugar Organosilicon Compound = 2.20 ± 0.90 µg/g • Group 4: Zwitterionic Sugar Organosilicon Compound = 3.10 ± 0.70 µg/g • Group 5: PEGylated Organosilicon Compound = 2.90 ± 1.20 µg/g

[4] = IPSS E011: pharmacokinetics and bioaccumulation of platinum complexes, total platinum in blood and organs by AAS; type: in vivo; details: rats, 1.0 mg intravenous, repeated dose over 7 consecutive days
Text: IPSS E011: A Clinical Study in Rats on the Pharmacokinetics and Bioaccumulation of Platinum Complexes following the Repeated Dose over 7 Consecutive Days of Formulations (PT-11, PT-12 and PT-13), with 7 Days Non-Treatment Period
The following tables and figure 12 illustrate a summary of the generated results.

[5] = Example 18: doxorubicin-siosomes prepared from the single organosilicon compound
[6] = Example 19: doxorubicin-siosomes from organosilicon compounds and combinations

Molecule: 2-(N,N,N,trimethylammonia nonyllsilyl)ethyl-beta-D-glucopyranosid [SIL 67]
Encapsulation efficiency (%) [1, 5]: 60-70%
Particle size range of the Doxorubicin-siosomes (nm) [2]: 200-280 nm

Molecule: CCCCCCCCCCCCCCCCCC[Si](CCCCCCCCCCCCCCCCCC)(O[C@@H]1O[C@H](COC(C)=O)[C@@H](OC(C)=O)[C@H](OC(C)=O)[C@H]1OC(C)=O)O[C@@H]1O[C@H](COC(C)=O)[C@@H](OC(C)=O)[C@H](OC(C)=O)[C@H]1OC(C)=O [SIL 14, 1-O-Dioctadecylsilyl-di(2,3,4,6-O-tetraacetyl-β-D-glucopyranosid)]
Encapsulation efficiency (%) [1, 5]: 75-80%
Particle size range of the Doxorubicin-siosomes (nm) [2]: 210-260 nm

Molecule: C[Si](C)(CCCCCCCCCC(=O)O)CCOC1O[C@H](CO)[C@H](O)[C@H](O)[C@H]1N (stereo partly drawn) [SIL 68]
Encapsulation efficiency (%) [1, 5]: 70-80%
Particle size range of the Doxorubicin-siosomes (nm) [2]: 180-220 nm

Molecule: CCCCCCCCCC[Si](C)(C)O[C@H]1O[C@H](CO)[C@H](O)[C@H](O)[C@H]1O [Sil 8.1, Decyldimethylsilyl-α-D-galactopyranosid]
Encapsulation efficiency (%) [1, 5]: 65-70%
Particle size range of the Doxorubicin-siosomes (nm) [2]: 100-220 nm

Molecule: C[Si](C)(CCCCCCCCC(=O)O)CCO[C@@H]1O[C@H](CO)[C@@H](O)[C@H](O)[C@H]1O [SIL 58, 2-(Dimethylnonanoic acid silyl)ethyl-beta-D-glucopyranosid]
Encapsulation efficiency (%) [1, 5]: 70-80%
Particle size range of the Doxorubicin-siosomes (nm) [2]: 150-270 nm

Molecule: CCCCCCCCCCCCCCCCCC[Si](CCCCCCCCCCCCCCCCCC)(O[C@@H]1O[C@H](COC(C)=O)[C@H](OC(C)=O)[C@H](OC(C)=O)[C@H]1OC(C)=O)O[C@@H]1O[C@H](COC(C)=O)[C@H](OC(C)=O)[C@H](OC(C)=O)[C@H]1OC(C)=O [SIL 15, 1-O-Dioctadecylsilyl-di(2,3,4,6-O-tetraacetyl-β-D-galactopyranosid)]
Encapsulation efficiency (%) [1, 5]: 70-78%
Particle size range of the Doxorubicin-siosomes (nm) [2]: 180-250 nm

Encapsulation efficiency (%) [1, 5]: 80-85%
Particle size range of the Doxorubicin-siosomes (nm) [2]: 200-250 nm
Molecule: 2-(Dimethyloctylsilylcholin)ethyl-beta-D-PEG-acetylglucosaminether [SIL 54]

Molecule: 2-(N,N,N,trimethylammonia nonanyllsilyl)ethyl-beta-D-glucopyranosid sulfate [SIL 66]
Encapsulation efficiency (%) [1, 5]: 55-70%
Average concentration of total platinum in the liver homogenate [3]: 3.10 ± 0.70 µg/g
Particle size range of the Doxorubicin-siosomes (nm) [2]: 150-220 nm

Molecule: 2-(Dimethylcholesterylhemisuccinatesilyl)ethyl-beta-D-glucopyranosid sulfate [SIL 59]
Encapsulation efficiency (%) [1, 5]: 60-70%
Particle size range of the Doxorubicin-siosomes (nm) [2]: 180-220 nm

Encapsulation efficiency (%) [1, 5]: 80-85%
Particle size range of the Doxorubicin-siosomes (nm) [2]: 180-250 nm
Molecule: 2-(Dimethyl nonaoic acid silyl)ethyl-beta-D-PEG-acetylglucosaminether [SIL 53]

Molecule: CCCCCCCCCCCC[Si](C)(C)O[C@H]1O[C@H](CO)[C@@H](O)[C@H](O)[C@H]1O [Sil 9.1, Dodecyldimethylsilyl-α-D-glucopyranosid]
Encapsulation efficiency (%) [1, 5]: 60-65%
Particle size range of the Doxorubicin-siosomes (nm) [2]: 150-200 nm

Molecule: CCCCCCCC[Si](C)(C)CCO[C@@H]1O[C@H](CO)[C@H](O)[C@H](O)[C@H]1O [SIL 22, 2-(Dimethyloctylsilyl)ethyl-β-D-galactopyranosid]
Encapsulation efficiency (%) [1, 6]: 55-70%
Particle size (nm) [2]: 250-300 nm

Molecule: 2-(Dimethyloctadecylsilyl)ethyl-beta-N-acetylmuramic acid [SIL 60]
Encapsulation efficiency (%) [1, 5]: 60-70%
Particle size range of the Doxorubicin-siosomes (nm) [2]: 200-250 nm

Molecule: CCCCCCCCCC[Si](C)(C)CCO[C@@H]1O[C@H](COS(=O)(=O)O)[C@@H](O)[C@H](O)[C@H]1O [SIL 56, 2-(Dimethyldecylsilyl)ethyl-beta-D-glucopyranosidsulfate]
Encapsulation efficiency (%) [1, 5]: 60-70%
Average concentration of total platinum in the liver homogenate [3]: 2.20 ± 0.90 µg/g
Particle size range of the Doxorubicin-siosomes (nm) [2]: 200-220 nm

Concentration of Total Platinum in Blood (ng/ml), Average ([4]; 7 days non-treatment period, average of 6 rats): 1521,92 ng/ml
Concentration of Total Platinum in Kidney (µg/g), Average ([4]; average of 6 rats): 14,92 µg/g
Concentration of Total Platinum in Lung (µg/g), Average ([4]; average of 6 rats): 0,77 µg/g
Concentration of Total Platinum in Spleen (µg/g), Average ([4]; average of 6 rats): 2,39 µg/g
Concentration of Total Platinum in Stomach (µg/g), Average ([4]; average of 6 rats): 0,41 µg/g
Molecule: N.N.[Cl-].[Cl-].[OH-].[OH-].[Pt+4] [Standard Cis-Oxoplatin, Cis-oxoplatin]
Concentration of Total Platinum in Blood (ng/ml) ([4]; 7 days non-treatment period, individual rats): 1814,30 ng/ml and 1131,40 ng/ml and 1522,90 ng/ml and 1244,30 ng/ml and 1864,30 ng/ml and 1554,30 ng/ml
Concentration of Total Platinum in Kidney (µg/g) ([4]; individual rats): 21,22 µg/g and 13,92 µg/g and 15,88 µg/g and 11,62 µg/g and 11,76 µg/g and 15,12 µg/g
Concentration of Total Platinum in Lung (µg/g) ([4]; individual rats): 0,80 µg/g and 0,62 µg/g and 1,09 µg/g and 0,52 µg/g and 0,71 µg/g and 0,86 µg/g
Concentration of Total Platinum in Stomach (µg/g) ([4]; individual rats): 0,51 µg/g and 0,47 µg/g and 0,38 µg/g and 0,35 µg/g (2×) and 0,37 µg/g
Concentration of Total Platinum in Spleen (µg/g) ([4]; individual rats, listed as Standard Cis-Oxoplatinum): 1,99 µg/g and 2,28 µg/g and 2,35 µg/g and 2,10 µg/g and 3,81 µg/g and 1,80 µg/g

Molecule: CCCCCCCCCCCC[Si](CCCCCCCCCCCC)(CCCCCCCCCCCC)O[C@@H]1O[C@H](COC(C)=O)[C@@H](OC(C)=O)[C@H](OC(C)=O)[C@H]1OC(C)=O [SIL 18, Tridodecylsilyl-(2,3,4,6-O-tetraacetyl-β-D-glucopyranosid)]
Encapsulation efficiency (%) [1, 5]: 55-60%
Encapsulation efficiency (%) [1, 6]: 60-80%
Particle size range of the Doxorubicin-siosomes (nm) [2]: 160-250 nm
Particle size (nm) [2]: 220-350 nm

Molecule: CCCCCCCCCC[Si](C)(C)CCO[C@@H]1O[C@H](C(=O)O)[C@@H](O)[C@H](O)[C@H]1O [SIL 57, 2-(Dimethyldecylsilyl)ethyl-beta-D-glucopyranosidcarboxylate]
Encapsulation efficiency (%) [1, 5]: 75-80%
Particle size range of the Doxorubicin-siosomes (nm) [2]: 180-270 nm

Molecule: CCCCCCCCCC(=O)O[Si](C)(C)OC(=O)CCCCCCCCC [SIL 21.1, Di(decanoyloxy)dimethylsilan]
Encapsulation efficiency (%) [1, 5]: 60-75%
Particle size range of the Doxorubicin-siosomes (nm) [2]: 210-240 nm
